Data: the supplement of paper PMC10307832

Experiments:
Assay in all cases: relative viability (nuclei count vs DMSO), 5 days (fraction); higher = more cells survive
Dabrafenib + Luminespib = compound: CC(C)(C)c1nc(-c2cccc(NS(=O)(=O)c3c(F)cccc3F)c2F)c(-c2ccnc(N)n2)s1 [Dabrafenib] + CCNC(=O)c1noc(-c2cc(C(C)C)c(O)cc2O)c1-c1ccc(CN2CCOCC2)cc1 [Luminespib] (partner 0.01 µM)
How it was run: (§1)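 Cells from lung cancer lines were seeded into 1536-well plates and, one day later, dosed by pin tool. Treatments were either a single drug or a fixed dose of an anchor drug with five library-drug doses (not always all listed) in √10 steps. After 5 days, nuclei were stained in a one-step fixation (final 0.05% Triton X-100, 1% formaldehyde, 1 ug/ml Hoechst) and counted on 4× images, and relative viability is the treated-to-vehicle nuclei ratio, as the median of duplicate plates.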

Dabrafenib + Pictilisib = compound: CC(C)(C)c1nc(-c2cccc(NS(=O)(=O)c3c(F)cccc3F)c2F)c(-c2ccnc(N)n2)s1 [Dabrafenib] + CS(=O)(=O)N1CCN(Cc2cc3nc(-c4cccc5[nH]ncc45)nc(N4CCOCC4)c3s2)CC1 [Pictilisib] (partner 1 µM)
How it was run: as §1

VX-702 + OSI-027 = compound: NC(=O)c1ccc(N(C(N)=O)c2c(F)cccc2F)nc1-c1ccc(F)cc1F [VX-702] + COc1cccc2cc(-c3nc([C@H]4CC[C@H](C(=O)O)CC4)n4ncnc(N)c34)[nH]c12 [OSI-027] (partner 0.5 µM)
How it was run: as §1

VX-702 + AZD7762 = compound: NC(=O)c1ccc(N(C(N)=O)c2c(F)cccc2F)nc1-c1ccc(F)cc1F [VX-702] + NC(=O)Nc1cc(-c2cccc(F)c2)sc1C(=O)N[C@H]1CCCNC1 [AZD7762] (partner 0.2 µM)
How it was run: as §1

| Cell Line | relative viability (Dabrafenib + Luminespib; first compound 0.003 µM) | relative viability (Dabrafenib + Luminespib; first compound 0.009487 µM) | relative viability (Dabrafenib + Luminespib; first compound 0.03 µM) | relative viability (Dabrafenib + Luminespib; first compound 0.09487 µM) | relative viability (Dabrafenib + Luminespib; first compound 0.3 µM) | relative viability (Dabrafenib + Pictilisib; first compound 0.003 µM) | relative viability (Dabrafenib + Pictilisib; first compound 0.009487 µM) | relative viability (Dabrafenib + Pictilisib; first compound 0.03 µM) | relative viability (Dabrafenib + Pictilisib; first compound 0.09487 µM) | relative viability (Dabrafenib + Pictilisib; first compound 0.3 µM) | relative viability (VX-702 + OSI-027; first compound 0.02 µM) | relative viability (VX-702 + OSI-027; first compound 0.2 µM) | relative viability (VX-702 + OSI-027; first compound 0.6325 µM) | relative viability (VX-702 + OSI-027; first compound 2 µM) | relative viability (VX-702 + AZD7762; first compound 0.02 µM) | relative viability (VX-702 + AZD7762; first compound 0.2 µM) | relative viability (VX-702 + AZD7762; first compound 0.6325 µM) | relative viability (VX-702 + AZD7762; first compound 2 µM) |
| --- | --- | --- | --- | --- | --- | --- | --- | --- | --- | --- | --- | --- | --- | --- | --- | --- | --- | --- |
| UMC-11 | 1.14 | 1.12 | 0.85 | 0.939 | 1.07 | 0.749 | 0.819 | 0.621 | 0.832 | 0.888 | 0.482 | 0.446 | 0.458 | 0.533 |  |  |  |  |
| NCI-H1437 | 1.15 | 1.13 | 1.17 | 1.17 | 1.14 | 0.385 | 0.478 | 0.481 | 0.46 | 0.702 | 0.885 | 0.843 | 0.977 | 0.987 | 1.06 | 1.16 | 1.23 | 1.16 |
| EKVX | 0.996 | 1.03 | 0.852 | 0.819 | 0.897 | 0.413 | 0.458 | 0.38 | 0.495 | 0.59 | 0.811 | 0.607 | 0.675 | 0.668 | 0.726 | 0.673 | 0.407 | 0.776 |
| COR-L 105 | 0.852 | 0.936 | 0.916 | 0.949 | 0.977 | 0.297 | 0.435 | 0.353 | 0.454 | 0.474 | 0.661 | 0.679 | 0.688 | 0.517 |  |  |  |  |
| NCI-H650 |  | 0.832 | 0.688 | 0.56 | 0.461 |  | 0.977 | 0.878 | 0.688 | 0.661 | 0.562 |  | 0.567 | 0.595 | 0.943 | 0.894 | 0.936 | 1.16 |
| NCI-H1648 |  |  |  |  |  |  |  |  |  |  | 0.278 | 0.275 | 0.251 | 0.253 | 0.709 | 0.583 | 0.634 | 0.563 |
| NCI-H2009 | 1.01 | 0.967 | 0.911 | 0.879 | 0.79 | 0.292 | 0.797 | 0.475 | 0.334 | 0.346 | 0.688 | 0.88 | 0.774 | 0.801 |  |  |  |  |
| LXF-289 | 0.651 | 0.73 | 0.675 | 0.589 | 0.752 | 0.656 | 0.809 | 0.671 | 0.853 | 0.842 | 0.786 | 0.784 | 0.772 | 0.683 | 1.15 | 1.14 | 1.15 | 1.16 |
| NCI-H647 |  | 0.282 | 0.138 | 0.19 | 0.217 |  | 0.347 |  | 0.531 | 0.388 | 0.719 | 0.997 | 0.709 | 0.662 | 0.461 | 0.386 | 0.494 | 0.567 |
| NCI-H1666 | 0.988 | 0.995 | 1.04 | 0.997 | 1.11 | 0.473 |  | 0.474 | 0.387 | 0.448 | 0.937 |  | 0.789 | 0.635 | 0.925 | 0.837 | 0.922 | 0.693 |
| NCI-H1734 |  | 0.175 | 0.207 | 0.203 | 0.198 |  | 0.522 | 0.38 | 0.424 | 0.399 | 0.635 | 0.591 | 0.527 | 0.45 | 0.561 | 0.448 | 0.521 | 0.465 |
| BEN |  | 0.549 |  | 0.344 | 0.332 |  | 0.58 |  | 0.52 | 0.687 | 0.31 | 0.298 | 0.315 | 0.328 | 0.841 | 0.637 | 0.597 | 0.691 |
| PC-3 [JPC-3] | 0.782 | 0.649 | 0.655 | 0.736 | 0.696 | 0.642 | 0.982 | 0.916 | 0.745 | 0.818 | 0.8 | 0.768 | 0.818 | 0.644 | 0.797 | 0.853 | 0.894 | 0.84 |
| NCI-H2228 |  | 0.184 | 0.147 | 0.118 | 0.165 | 0.331 | 0.386 | 0.415 | 0.316 | 0.483 | 0.649 | 0.514 | 0.534 | 0.683 |  |  |  |  |
| HOP-62 | 0.936 | 0.878 | 0.977 | 0.795 | 0.872 |  | 0.843 | 0.648 | 0.581 | 0.727 | 0.88 | 0.859 | 0.831 | 0.982 | 0.95 | 0.409 | 1.08 | 0.465 |
| H3255 | 0.699 | 0.961 | 0.908 | 0.96 | 0.871 | 0.394 | 0.566 | 0.43 | 0.405 | 0.462 | 0.666 | 0.684 | 0.541 | 0.63 | 0.987 | 0.901 | 0.994 | 0.996 |
| 201T | 1.08 | 1.1 | 0.967 | 0.983 | 1.06 | 0.665 | 0.711 | 0.607 | 0.65 | 0.71 | 0.732 | 0.499 | 0.69 | 0.735 | 0.585 | 0.561 | 0.509 | 0.449 |
| HCC-44 | 1.12 | 1.01 | 1.17 | 0.98 | 0.861 | 0.555 | 0.67 | 0.499 | 0.704 | 0.699 | 0.48 | 0.433 | 0.491 | 0.485 | 1.05 | 1.03 | 1.06 | 1.04 |
| ABC-1 | 0.67 | 0.637 |  | 0.449 | 0.875 |  | 0.86 | 0.823 | 0.778 | 0.822 | 0.47 | 0.578 | 0.509 | 0.615 | 0.425 |  | 0.432 | 0.897 |
| HARA | 0.83 | 0.818 |  | 0.621 | 0.726 | 0.327 | 0.629 | 0.325 | 0.399 | 0.605 | 0.458 | 0.412 | 0.446 | 0.479 | 0.313 |  | 0.306 | 0.331 |
